Laboratory results from US9040523B2, “Antifungal 5,6-dihydro-4H-pyrrolo[1,2-α][1,4]-benzodiazepines and 6H-pyrrolo[1,2-α][1,4]benzodiazepines substituted with benzene derivatives” (JANSSEN PHARMACEUTICA NV, priority 2010, dated 2015).

What was measured:
CYP3A4 = CYP3A4 (Homo sapiens, UniProt P08684); assay: Cytochrome P450 inhibition, Protocol A, cDNA expressed proteins, fluorogenic substrates; assay type: in vitro ADME; settings: % inhibition at 10 μM, cDNA expressed protein; for hCYP3A4_BFC_Pct_Inh: substrate BFC; for hCYP3A4_BQ_Pct_Inh: substrate BQ; for hCYP3A4_DBF_Pct_Inh: substrate DBF
Sequence of CYP3A4 (P08684 whole entry): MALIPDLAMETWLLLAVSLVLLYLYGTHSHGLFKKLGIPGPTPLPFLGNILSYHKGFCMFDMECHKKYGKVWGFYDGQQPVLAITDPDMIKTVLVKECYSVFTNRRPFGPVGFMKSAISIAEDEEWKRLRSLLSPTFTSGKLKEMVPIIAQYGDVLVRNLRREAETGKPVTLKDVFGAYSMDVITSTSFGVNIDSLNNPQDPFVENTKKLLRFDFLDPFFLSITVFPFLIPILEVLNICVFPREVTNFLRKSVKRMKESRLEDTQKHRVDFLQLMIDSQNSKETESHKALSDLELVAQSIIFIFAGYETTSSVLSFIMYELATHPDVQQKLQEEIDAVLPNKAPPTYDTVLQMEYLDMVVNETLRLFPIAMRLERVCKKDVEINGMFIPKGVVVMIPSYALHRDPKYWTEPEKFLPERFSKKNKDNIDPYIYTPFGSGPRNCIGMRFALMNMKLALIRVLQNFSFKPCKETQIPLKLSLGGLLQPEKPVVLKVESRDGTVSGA
Protocol: (§1) All fluorogenic based assays were performed in Black Costar 96-well plates according to Crespi et al 1997 with minor modifications (Crespi C L, Miller V P & Penman B W (1997). Microtiter plate assays for inhibition of human, drug-metabolizing cytochromes P450. Anal. Biochem. Vol 248, 1898-1900). Assay conditions are outlined in Table 5a. For cytochrome P450 3A4, three different fluorogenic substrates were used. Each reaction mixture consisted of the appropriate concentration of enzyme, NADPH-generating system (“NADPH” means β-nicotinamide adenine dinucleotide phosphate, reduced), substrate in sodium/potassium buffer (pH 7.4). For each cytochrome P450 batch Michealis-Menten kinetics were determined using 11 concentrations.
(§2) Thereafter, further dilutions were made in acetonitrile. […] The compounds were serially diluted to give final concentrations ranging from 1 nM to 10 μM. The reaction mixtures, whereby 1 μL of buffer was replaced by compound solution, were pre-warmed for 5 min at 37° C. and the reaction was initiated by the addition of β-nicotinamide adenine dinucleotide phosphate (NADP+). Reactions were terminated by addition of stopping reagent and the fluorescence was measured using a Fluoroscan (Labsystems, Brussel, Belgium).
(§3) In Table 5a, the following abbreviations were used: 3-cyano-7-ethocycoumarin (CEC), 7-methoxy-4-trifluoromethylcoumarin (MFC), 3-[2-(N,N-diethyl-N-methylamino)ethyl]-7-methoxy-4-methylcoumarin (AMMC), 7-benzyloxy-trifluoromethyl coumarin (BFC), 7-benzyloxyquinoline (BQ) and dibenzyl fluorescein (DBF).

CYP1A2 = target: T1, CYP1A2 (Homo sapiens, UniProt P05177); assay: Cytochrome P450 inhibition, Protocol A, cDNA expressed proteins, fluorogenic substrate; assay type: in vitro ADME; settings: % inhibition at 10 μM; substrate CEC; cDNA expressed protein
T1 sequence (P05177 1-516): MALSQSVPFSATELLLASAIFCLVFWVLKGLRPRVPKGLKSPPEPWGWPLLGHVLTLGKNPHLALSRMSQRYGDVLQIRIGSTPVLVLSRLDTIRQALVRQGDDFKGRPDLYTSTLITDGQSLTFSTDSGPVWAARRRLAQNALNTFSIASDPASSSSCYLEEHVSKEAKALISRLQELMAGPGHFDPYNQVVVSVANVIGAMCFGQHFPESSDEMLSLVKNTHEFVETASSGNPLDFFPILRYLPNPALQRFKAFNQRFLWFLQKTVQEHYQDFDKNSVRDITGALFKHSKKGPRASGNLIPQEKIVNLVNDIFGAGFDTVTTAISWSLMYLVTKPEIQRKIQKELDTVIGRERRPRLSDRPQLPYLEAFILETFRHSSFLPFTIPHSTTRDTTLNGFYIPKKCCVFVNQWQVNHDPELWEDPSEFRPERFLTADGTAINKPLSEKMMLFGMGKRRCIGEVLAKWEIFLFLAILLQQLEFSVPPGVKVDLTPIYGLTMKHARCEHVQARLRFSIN
Protocol: as §1, §2, §3

CYP2C9 = CYP2C9 (Homo sapiens, UniProt P11712); assay: as above; assay type: in vitro ADME; settings: % inhibition at 10 μM; substrate MFC; cDNA expressed protein
Sequence of CYP2C9 (P11712 whole entry): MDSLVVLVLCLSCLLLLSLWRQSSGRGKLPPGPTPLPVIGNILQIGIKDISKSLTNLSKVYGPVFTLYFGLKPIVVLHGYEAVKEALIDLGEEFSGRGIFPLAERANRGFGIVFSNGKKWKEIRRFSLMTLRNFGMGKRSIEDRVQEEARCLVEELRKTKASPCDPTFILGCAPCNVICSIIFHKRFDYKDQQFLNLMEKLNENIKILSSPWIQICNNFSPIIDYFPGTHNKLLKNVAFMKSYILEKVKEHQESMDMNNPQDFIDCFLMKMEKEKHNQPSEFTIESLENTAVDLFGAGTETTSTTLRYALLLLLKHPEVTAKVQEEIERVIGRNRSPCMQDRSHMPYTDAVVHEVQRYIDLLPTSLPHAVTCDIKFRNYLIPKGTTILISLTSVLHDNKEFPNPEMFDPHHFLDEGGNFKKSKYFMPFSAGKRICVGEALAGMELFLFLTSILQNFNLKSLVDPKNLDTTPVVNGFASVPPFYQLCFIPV
Protocol: as §1, §2, §3

CYP2D6 = CYP2D6 (Homo sapiens, UniProt P10635); assay: as above; assay type: in vitro ADME; settings: % inhibition at 10 μM; substrate AMMC; cDNA expressed protein
Sequence of CYP2D6 (P10635 whole entry): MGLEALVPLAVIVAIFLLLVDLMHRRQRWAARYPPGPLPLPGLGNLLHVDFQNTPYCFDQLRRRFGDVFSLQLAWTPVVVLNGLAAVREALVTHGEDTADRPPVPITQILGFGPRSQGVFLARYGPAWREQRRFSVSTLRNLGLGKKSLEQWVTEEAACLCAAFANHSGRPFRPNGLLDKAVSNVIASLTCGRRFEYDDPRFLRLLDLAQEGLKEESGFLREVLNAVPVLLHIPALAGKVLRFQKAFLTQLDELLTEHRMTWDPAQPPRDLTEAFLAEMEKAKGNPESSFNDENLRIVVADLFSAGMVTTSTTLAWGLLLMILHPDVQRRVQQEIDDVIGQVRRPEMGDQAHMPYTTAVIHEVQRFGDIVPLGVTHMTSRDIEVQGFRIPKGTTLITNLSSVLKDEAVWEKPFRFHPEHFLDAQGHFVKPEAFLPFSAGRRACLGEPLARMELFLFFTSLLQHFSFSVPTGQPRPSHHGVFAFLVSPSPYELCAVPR
Protocol: as §1, §2, §3

Microsporum canis B68128 = assay: Antifungal activity in vitro (resazurin susceptibility screen), Inf. B; assay type: cell-based; settings: 27 °C, 9 days, resa time 24 hours; for IC50: Microsporum canis, B68128, Microsporum canis B68128, read-out: Inf. B pIC50 (converted)
Protocol: (§4) The standard susceptibility screen was performed in 96-well plates (U-bottom, Greiner Bio-One). […] These serial dilutions (10 n1) were then spotted onto test-plates that could be stored in the dark at 4° C. for a maximum period of 2 weeks. […] A standard inoculum of 200 μl containing 10^3 colony-forming unit (cfu) was then added to each well. A positive control (100% growth=fungal culture without antifungal) and a negative control (0% growth ═RPMI-MOPS medium) were included on each plate.

[1] = test system: Trichophyton rubrum B68183; assay: Antifungal activity in vitro (resazurin susceptibility screen), Inf. C; assay type: cell-based; settings: Trichophyton rubrum B68183; 27 °C, 7 days, resa time 24 hours; read-out: Inf. C pIC50 (converted)
Protocol: (§5) The standard susceptibility screen was performed in 96-well plates (U-bottom, Greiner Bio-One). […] These serial dilutions (10 n1) were then spotted onto test-plates that could be stored in the dark at 4° C. for a maximum period of 2 weeks. […] The different fungal species/isolates (Table 3a) were cryopreserved and 1/1000 diluted in medium just prior to use. A standard inoculum of 200 μl containing 10^3 colony-forming unit (cfu) was then added to each well. A positive control (100% growth=fungal culture without antifungal) and a negative control (0% growth ═RPMI-MOPS medium) were included on each plate. […] [table]

[2] = test system: Trichophyton mentagrophytes B70554; assay: Antifungal activity in vitro (resazurin susceptibility screen), Inf. G; assay type: cell-based; settings: Trichophyton mentagrophytes, B70554, Trichophyton mentagrophytes B70554; 27 °C, 7 days, resa time 24 hours; read-out: Inf. G pIC50 (converted)
Protocol: as §4

[3] = test system: Cryptococcus neoformans B66663; assay: Antifungal activity in vitro (resazurin susceptibility screen), Inf. F; assay type: cell-based; settings: 37 °C, 24 hours, resa time 4 hours; for IC50: Cryptococcus neoformans, B66663, Cryptococcus neoformans B66663, read-out: Inf. F pIC50 (converted)
Protocol: as §5

[4] = test system: Aspergillus fumigatus B42928; assay: Antifungal activity in vitro (resazurin susceptibility screen), Inf. E; assay type: cell-based; settings: Aspergillus fumigatus B42928; 27 °C, 48 hours, resa time 17 hours; read-out: Inf. E pIC50 (converted)
Protocol: as §5

[5] = test system: Candida parapsilosis B66126; assay: Antifungal activity in vitro (resazurin susceptibility screen), Inf. D; assay type: cell-based; settings: Lodderomyces parapsilosis; Candida parapsilosis B66126; 37 °C, 24 hours, resa time 4 hours; read-out: Inf. D pIC50 (converted)
Protocol: as §4

[6] = test system: Sporothrix schenkii B62482; assay: Antifungal activity in vitro (resazurin susceptibility screen), Inf. A; assay type: cell-based; settings: Sporothrix, B62482, Sporothrix schenkii B62482; 27 °C, 4 days, resa time 24 hours; highest in-test concentration 64 μM; read-out: Inf. A pIC50 (converted)
Protocol: as §5

Row | Structure (SMILES) | hCYP3A4_BFC_Pct_Inh (CYP3A4) [%] | hCYP3A4_BQ_Pct_Inh (CYP3A4) [%] | hCYP3A4_DBF_Pct_Inh (CYP3A4) [%] | hCYP1A2_CEC_Pct_Inh (CYP1A2) [%] | hCYP2C9_MFC_Pct_Inh (CYP2C9) [%] | hCYP2D6_AMMC_Pct_Inh (CYP2D6) [%] | IC50 (Microsporum canis B68128) [µM] | IC50 [1] [µM] | IC50 [2] [µM] | IC50 [3] [µM] | melting point [°C] | IC50 [4] [µM] | IC50 [5] [µM] | IC50 [6] [µM] | Inf. B pIC50 (Microsporum canis B68128; Microsporum canis B68128) | Inf. F pIC50 ([3]; Cryptococcus neoformans B66663)
1 | CC(=O)c1ccc(C2NCc3c(Cl)cccc3-n3cccc32)cc1.Cl (stereo not drawn) | 57 | 57 | 70 | 12 | 54 | 53 |  |  |  |  |  |  |  |  |  | 
2 | CCc1ccc(C2NCc3c(Cl)cccc3-n3cccc32)cc1.Cl (stereo not drawn) | 64 | 57 | 69 | 48 | 68 | 96 |  |  |  |  |  |  |  |  |  | 
3 | CCc1ccc(C2=NCc3ccc(Cl)cc3-n3cccc32)cc1 | 55 | 66 | 70 | 40 | 50 | 33 |  |  |  |  |  |  |  |  |  | 
4 | CC(=O)c1ccc(C2NCc3ccc(Cl)cc3-n3cccc32)cc1 (stereo not drawn) [Compound 8, 1-[4-(9-chloro-5,6-dihydro-4H-pyrrolo[1,2-a][1,4]benzodiazepin-4-yl)phenyl]-ethanone] |  |  |  |  |  |  | > 63.1 | 2 | 5.01 | 50.1 | 185.4 to 186.9 | 12.6 | > 63.1 | 31.6 |  | 
5 | CC(=O)c1ccc(C2NCc3c(Cl)cc(Cl)cc3-n3cccc32)cc1 (stereo not drawn) [Compound 11, 1-[4-(7,9-dichloro-5,6-dihydro-4H-pyrrolo[1,2-a][1,4]benzodiazepin-4-yl)phenyl]-ethanone] |  |  |  |  |  |  |  | 2 | 5.01 |  | 204.8 to 206.6 | > 63.1 | > 63.1 | 50.1 | 6.0 | 5.2
6 | CC(=O)c1ccc(C2NCc3cc(Cl)cc(Cl)c3-n3cccc32)cc1.Cl (stereo not drawn) [Compound 14, 1-[4-(8,10-dichloro-5,6-dihydro-4H-pyrrolo[1,2-a][1,4]benzodiazepin-4-yl)phenyl]-ethanone .HCl] |  |  |  |  |  |  | 2.51 | 0.631 | 25.1 | 50.1 | 259.3 to 264.5 | > 63.1 | > 63.1 | 25.1 |  | 
